According to paper PMC9551036, “A selective and orally bioavailable VHL-recruiting PROTAC achieves SMARCA2 degradation in vivo” (Nature Communications, 2022):
Values joined by “and” are separate entries in the source; they are usually repeats but may differ in a detail not shown here. Equal entries are not always repeated. Where two headings read alike, the source gives them in different places.

Key:
SMARCA2^BD = molecular target: T1, SMARCA2^BD (Homo sapiens, UniProt P51531); assay: SPR binding to immobilised SMARCA2 bromodomain
T1 construct: P51531-2, residues 1373-1493 with additional N-terminal SM residues; GST (TEV site) (N, cleaved yes); made in house; host or cells: Escherichia coli BL21(DE3)
Protocol: SMARCA4^BD was provided by the Structural Genomics Consortium (SGC), Toronto[32] and SMARCA2^BD and PRM1^BD5 were synthesised by GeneArt then subcloned into pDEST15 vectors (Invitrogen). The VCB complex was expressed and purified as described previously, with the modification that 0.3 mM IPTG was used for induction of expression. […] Both were stored in 20 mM 4-(2-hydroxyethyl)−1-piperazineethanesulfonic acid (HEPES), 150 mM sodium chloride and 1 mM tris(2-carboxyethyl)phosphine (TCEP) pH 7.5. SMARCA2^BD, SMARCA4^BD and PBRM1^BD5 were expressed in Escherichia coli BL21(DE3) as N-terminal GST fusion proteins with a TEV protease cleavage site. Expression and purification of these proteins has been described previously[32],[33]. Starter cultures were grown overnight at 37 °C in 10 mL of Luria-Bertani (LB) medium with ampicillin (100 μg/mL). The starter cultures were diluted (1:100) in Terrific Broth (TB) medium with ampicillin (100 μg/mL) and grown in a shaking incubator at 37 °C to an optical density (OD600) ~1 before the temperature was lowered for induction (to 23 °C for SMARCA2^BD or 18 °C for SMARCA4^BD and PRRM1^BD5). […] Cells were harvested by centrifugation and stored at −80 °C prior to purification. […] The Lysis buffers were as follows: for SMARCA2^BD: 50 mM HEPES, 500 mM sodium chloride, 5% glycerol, 5 mM dithiothreitol (DTT); for SMARCA4^BD: 25 mM HEPES, 0.3 M sodium chloride, 5% glycerol, 10 mM DTT, pH 7.5; for PBRM1^BD5: 25 mM HEPES, 300 mM sodium chloride, 5% glycerol, 10 mM DTT, pH 7.8; in each case supplemented with complete protease inhibitors (Roche). Affinity purification was performed using Glutathione Sepharose 4B (GE Healthcare) in batch mode or on-column. […] For SMARCA2^BD, prior to TEV protease cleavage the eluted GST-tagged BD was first dialysed into desalting buffer (20 mM HEPES, 250 mM sodium chloride, pH 7.0 + 0.5% glycerol). Where TEV cleavage was performed in solution, a second affinity (GST-trap) column purification step was carried out to remove the GST-tag and uncleaved GST-tagged protein. Proteins were further purified by SEC (HiLoad Superdex-75, 16/600) (GE Healthcare) and stored in Storage buffer (for SMARCA2^BD: 20 mM HEPES, 150 mM sodium chloride, pH 7.5; for SMARCA4^BD: 10 mM HEPES, 0.5 M NaCl, 5% glycerol, pH 7.5; for PBRM1^BD5: 20 mM HEPES, 300 mM NaCl, 5 mM DTT, pH 7.8). For AlphaScreen assays, eluted GST-tagged BDs were purified directly by SEC in the respective storage buffers without TEV cleavage. All chromatography purification steps were performed either at room temperature or 4 °C using an ÄKTA FPLC purification system (GE Healthcare) or a plastic Econo-Pac column (Bio-Rad).
(§1) SPR data were acquired on Biacore 8K or T200 instruments (Cytiva). Target proteins were immobilised at 25 °C on CM5 chips by amine coupling (EDC/NHS, Cytiva) in HBS-P+ running buffer (pH 7.4), containing 2 mM TCEP. […] The reference surface was subsequently deactivated using 1 M ethanolamine. […] Biotinylated VCB was prepared as previously described[27]: in brief, the complex was mixed 1:1 with EZ-Link NHS–PEG4–biotin (Thermo Scientific) and incubated at room temperature for 1 h. Unreacted NHS-biotin was removed using a PD-10 desalting column (Cytiva) into 20 mM HEPES, pH 7.5, 150 mM sodium chloride and 1 mM DTT. The reference surface was generated by deactivating the EDC/NHS-treated surface with 1 M ethanolamine. All interaction experiments were done at 6 °C in running buffer (20 mM TRIS, pH 8.3, 150 mM potassium chloride, 2 mM magnesium chloride, 2 mM TCEP, 0.005% TWEEN 20, 1% dimethyl sulfoxide). For ternary complex measurements, a sensor chip surface with VCB immobilised was used (preparation as described above). Experiments were run in dual-inject mode with 10 µM SMARCA present during the injection and dissociation phase. Sensorgrams from reference surfaces and blank injections were subtracted from the raw data prior to data analysis using Biacore Insight software.

[1] = tested on: VCB: PROTAC: SMARCA2^BD ternary complex; assay: TR-FRET ternary complex affinity and cooperativity, SMARCA2; assay type: binding, human; conditions: ratio TR-FRET EC50 / TR-FRET EC50 +VCB measured in the same run, SMARCA2BD
[2] = molecular target: VCB: PROTAC: SMARCA4^BD ternary complex (Homo sapiens, UniProt P40337+P51532); assay: SPR ternary complex measurement, VCB immobilised, 10 µM SMARCA4^BD present; assay type: binding; parameters: P51532, residues 1448–1569 with additional N-terminal SM residues; His6 (TEV site) (N, cleaved yes); GST (TEV site) (N, cleaved yes); made in house; host or cells: SMARCA4^BD: Escherichia coli BL21(DE3); conditions: for Kd: SPR; for alpha: cooperativity, SMARCA4, ratio of KD values measured in the same run
Protocol: as §1, with “software. Affinity and binding kinetic parameters were determined by global fitting using the 1:1 interaction model with a term for mass-transport included.” for “software.”

[3] = SPR, SMARCA2BD, mean ± SD, read-out: SMARCA2 KD
[4] = SPR, individual replicates, read-out: SMARCA2 KD
[5] = ternary complex with SMARCA4BD, mean ± SD

T1 sequence (P51531 1373-1493 isoform P51531-2): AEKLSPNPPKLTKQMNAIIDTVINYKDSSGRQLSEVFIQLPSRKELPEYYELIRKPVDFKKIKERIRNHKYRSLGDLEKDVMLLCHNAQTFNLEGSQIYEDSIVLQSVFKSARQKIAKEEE
Chain of VCB: PROTAC: SMARCA4^BD ternary complex (P40337 54-213): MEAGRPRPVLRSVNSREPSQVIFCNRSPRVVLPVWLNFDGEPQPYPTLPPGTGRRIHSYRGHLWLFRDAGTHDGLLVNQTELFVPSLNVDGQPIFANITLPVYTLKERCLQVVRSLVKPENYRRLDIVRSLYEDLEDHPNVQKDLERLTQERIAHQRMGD
Chain of VCB: PROTAC: SMARCA4^BD ternary complex (Q15369 17-112 partner limits assumed): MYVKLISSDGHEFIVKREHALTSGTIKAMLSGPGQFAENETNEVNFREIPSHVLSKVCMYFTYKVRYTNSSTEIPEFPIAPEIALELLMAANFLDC
Chain of VCB: PROTAC: SMARCA4^BD ternary complex (Q15370 1-104 partner limits assumed): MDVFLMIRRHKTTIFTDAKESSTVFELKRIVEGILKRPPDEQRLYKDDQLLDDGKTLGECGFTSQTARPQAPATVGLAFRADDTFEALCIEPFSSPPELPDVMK
Chain of VCB: PROTAC: SMARCA4^BD ternary complex (P51532 1448-1569): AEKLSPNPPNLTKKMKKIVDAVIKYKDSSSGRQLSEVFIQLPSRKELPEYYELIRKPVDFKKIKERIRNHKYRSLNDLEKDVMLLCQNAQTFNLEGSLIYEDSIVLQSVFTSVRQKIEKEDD

Cc1ncsc1-c1ccc(C(CCC(C)CCN2CCC(c3ccc4c(c3)n(C3CCCC3)c3nc(=O)c5c(Br)cccc5n43)CC2)NC(=O)C2CC(O)CN2C(=O)C(NC(=O)C2(F)CC2)C(C)(C)C)cc1 (stereo not drawn) [ACBI2]
Kd (SMARCA2^BD; [3]): 0.208 ± 0.039 µM | Kd (SMARCA2^BD; [4]): 0.25 µM and 0.202 µM and 0.173 µM | cooperativity α (SMARCA2BD) [1]: 4.6 ± 2.2 | Kd [2, 5]: 0.024 ± 0.004 µM | Kd ([2]; ternary, individual replicates): 0.0219 µM and 0.0227 µM and 0.0284 µM | alpha [2]: 1.4

O=c1nc2n(C3CCCC3)c3ccccc3n2c2cccc(Br)c12 [compound 1]
Kd (SMARCA2^BD; [3]): 1.06 ± 0.258 µM | Kd (SMARCA2^BD; [4]): 1.05 µM and 0.804 µM and 1.32 µM

Nc1cccc2c1c(=O)nc1n(C3CCCC3)c3ccccc3n21 [compound 2]
Kd (SMARCA2^BD; [3]): 1.16 ± 0.421 µM | Kd (SMARCA2^BD; [4]): 0.826 µM and 0.632 µM and 0.916 µM and 1.49 µM and 1.42 µM and 1.67 µM | Kd (SMARCA2^BD; read-out: SMARCA2^BD SPR KD): 1.16 µM

CN1CCC(c2ccc3c(c2)n(C2CCCC2)c2nc(=O)c4c(Br)cccc4n32)CC1 [compound 3]
koff (SMARCA2^BD): 0.09 ± 0.01 s⁻¹ | kon (SMARCA2^BD): 1.98e+06 ± 130000 M⁻¹ s⁻¹ | Kd (SMARCA2^BD; [3]): 0.046 ± 0.005 µM | Kd (SMARCA2^BD; [4]): 0.0722 µM and 0.083 µM and 0.0787 µM and 0.0507 µM and 0.0446 µM and 0.0415 µM | Kd (SMARCA2^BD; read-out: SMARCA2^BD SPR KD): 0.046 µM

Cc1ncsc1-c1ccc([C@H](COC(C)CN2CCC(c3ccc4c(c3)n(C3CCCC3)c3nc(=O)c5c(Br)cccc5n43)CC2)NC(=O)[C@@H]2C[C@@H](O)CN2C(=O)[C@@H](NC(=O)C2(F)CC2)C(C)(C)C)cc1 (stereo partly drawn) [compound 9]
Kd (SMARCA2^BD; [3]): 0.263 ± 0.009 µM | Kd (SMARCA2^BD; [4]): 0.26 µM and 0.273 µM and 0.257 µM | cooperativity α (SMARCA2BD) [1]: 7.0 ± 2.6 | Kd [2, 5]: 0.18 ± 0.013 µM | Kd ([2]; ternary, individual replicates): 0.171 µM and 0.174 µM and 0.195 µM | alpha [2]: 0.2

Cc1ncsc1-c1ccc([C@H](COC(C)CN2CCC(c3ccc4c(c3)n(C3CCCC3)c3nc(=O)c5c(Br)cccc5n43)CC2)NC(=O)[C@@H]2C[C@@H](O)CN2C(=O)[C@@H](NC(=O)C2(N(C)C)CC2)C(C)(C)C)cc1 (stereo partly drawn) [compound 10]
Kd (SMARCA2^BD; [3]): 0.222 ± 0.006 µM | Kd (SMARCA2^BD; [4]): 0.228 µM and 0.218 µM and 0.219 µM | cooperativity α (SMARCA2BD) [1]: 10.1 ± 3.8 | Kd [2, 5]: 0.172 ± 0.115 µM | Kd ([2]; ternary, individual replicates): 0.305 µM and 0.102 µM and 0.109 µM | alpha [2]: 0.7

Cc1ncsc1-c1ccc([C@H](CCCCCN2CCC(c3ccc4c(c3)n(C3CCCC3)c3nc(=O)c5c(Br)cccc5n43)CC2)NC(=O)[C@@H]2C[C@@H](O)CN2C(=O)[C@@H](NC(=O)C2(F)CC2)C(C)(C)C)cc1 [compound 11]
Kd (SMARCA2^BD; [4]): 0.148 µM and 0.144 µM and 0.14 µM | cooperativity α (SMARCA2BD) [1]: 5.3 ± 2.1 | Kd [2, 5]: 0.018 ± 0.002 µM | Kd ([2]; ternary, individual replicates): 0.0167 µM and 0.0163 µM and 0.0193 µM | alpha [2]: 0.6

Cc1ncsc1-c1ccc([C@H](CC[C@H](C)CCN2CCC(c3ccc4c(c3)n(C3CCCC3)c3nc(=O)c5c(Br)cccc5n43)CC2)NC(=O)[C@@H]2C[C@H](O)CN2C(=O)[C@@H](NC(=O)C2(F)CC2)C(C)(C)C)cc1 [compound 12]
Kd (SMARCA2^BD; [3]): 0.214 ± 0.015 µM | Kd (SMARCA2^BD; [4]): 0.202 µM and 0.231 µM and 0.209 µM | cooperativity α (SMARCA2BD) [1]: 1.1 ± 0.3

CN1CCN(c2nc(=O)c3c(Cl)cccc3o2)CC1 [compound 13]
Kd (SMARCA2^BD; [3]): 24.5 ± 2.17 µM | Kd (SMARCA2^BD; [4]): 26.5 µM and 24.9 µM and 22.2 µM

CN1CCN(c2nc(=O)c3c(Br)cccc3o2)CC1 [compound 15]
Kd (SMARCA2^BD; [3]): 9 ± 0.526 µM | Kd (SMARCA2^BD; [4]): 8.91 µM and 9.57 µM and 8.53 µM

CN1CCN(c2nc(=O)c3c(I)cccc3o2)CC1 [compound 16]
Kd (SMARCA2^BD; [3]): 17.9 ± 0.917 µM | Kd (SMARCA2^BD; [4]): 18.1 µM and 16.9 µM and 18.7 µM

Cc1ncsc1-c1ccc(CNC(=O)[C@@H]2C[C@H](O)CN2C(=O)[C@@H](NC(=O)C2(F)CC2)C(C)(C)C)c(OCCN2CCC(c3ccc4c(c3)n(C3CCCC3)c3nc(=O)c5c(Br)cccc5n43)CC2)c1 [compound 19]
Kd (SMARCA2^BD; [3]): 0.064 ± 0.004 µM | Kd (SMARCA2^BD; [4]): 0.0688 µM and 0.0629 µM and 0.0609 µM | cooperativity α (SMARCA2BD) [1]: 1.2 ± 0.1

Cc1ncsc1-c1ccc(CNC(=O)[C@@H]2C[C@@H](O)CN2C(=O)[C@@H](NC(=O)C2(F)CC2)C(C)(C)C)c(OCCN2CCC(c3ccc4c(c3)n(C3CCCC3)c3nc(=O)c5c(Br)cccc5n43)CC2)c1 [compound 20]
Kd (SMARCA2^BD; [3]): 0.104 ± 0.006 µM | Kd (SMARCA2^BD; [4]): 0.103 µM and 0.0988 µM and 0.11 µM | cooperativity α (SMARCA2BD) [1]: 0.6 ± 0.2 | Kd [2, 5]: 0.067 ± 0.003 µM | Kd ([2]; ternary, individual replicates): 0.0677 µM and 0.0693 µM and 0.0637 µM | alpha [2]: 0.1

Cc1ncsc1-c1ccc(CNC(=O)[C@@H]2C[C@@H](O)CN2C(=O)[C@@H](NC(=O)C2(F)CC2)C(C)(C)C)c(OCCOCCOCCN2CCC(c3ccc4c(c3)n(C3CCCC3)c3nc(=O)c5c(Br)cccc5n43)CC2)c1 [compound 21]
Kd (SMARCA2^BD; [3]): 0.68 ± 0.121 µM | Kd (SMARCA2^BD; [4]): 0.65 µM and 0.814 µM and 0.577 µM | cooperativity α (SMARCA2BD) [1]: 1.9 ± 0.1 | Kd [2, 5]: 0.016 ± 0.011 µM | Kd ([2]; ternary, individual replicates): 0.028 µM and 0.00774 µM and 0.013 µM | alpha [2]: 1.3

Cc1ncsc1-c1ccc(CNC(=O)[C@@H]2C[C@@H](O)CN2C(=O)[C@@H](NC(=O)C2(F)CC2)C(C)(C)C)c(OCCOCCOCCOCCN2CCC(c3ccc4c(c3)n(C3CCCC3)c3nc(=O)c5c(Br)cccc5n43)CC2)c1 [compound 22]
Kd (SMARCA2^BD; [3]): 1.1 ± 0.433 µM | Kd (SMARCA2^BD; [4]): 1.57 µM and 0.715 µM and 1.02 µM | cooperativity α (SMARCA2BD) [1]: 2.8 ±0.8 | Kd [2, 5]: 0.026 ± 0.002 µM | Kd ([2]; ternary, individual replicates): 0.0246 µM and 0.0239 µM and 0.028 µM | alpha [2]: 1.5
